One data set has as its system C. albicans. As to conditions: cited from earlier work.
The next data set concerns C. parapsilosis. Set-up: method as in PMID 35456530. Conditions: cited from earlier work.
Data set [1] concerns C. albicans, C. krusei, C. parapsilosis, and C. tropicalis. The data set can be described thus: Anticandidal activity, statements for all strains tested. In kind it is cell-based, Candida spp. Conditions: peptide 200 to 1.56 μM, 24 h, 37 °C. How it is done:
(§1) The anticandidal activity was performed against the following species: C. albicans (ATCC 10231), C. krusei (ATCC 22019), C. parapsilosis (ATCC 6258), and C. tropicalis (INCQS 40042). The cell concentration was standardized by OD600 nm to achieve a concentration of 1.5 × 10^3 CFU/mL. The assays were performed using 96-well microplates, mixing the cell suspensions (100 μL) with 100 μL of each peptide serially diluted (200 to 1.56 μM, final concentrations) in 0.15 M NaCl containing 5% DMSO (dimethyl sulfoxide), which was used as a control. The plates were incubated for 24 h at 37 °C under agitation (150 rpm), and the readings were done at 600 nm using a Microtiter Plate Reader. The results are shown as the percentage of growth, considering the OD600 nm of the control as 100%.

Data set [2] has as its system L929 (murine fibroblast) cells. As to conditions: L929, 200 μM.
Method: Cell viability of peptide-treated fibroblast cells was tested by the MTT method. Shortly, L929 cells were trypsinized (trypsin–EDTA solution) and seeded into 96-well plates with DMEM (100 μL) at 1 × 10^5 cells/mL for 48 h, followed by the addition of the same volume of serially diluted nicotianin-I (200–1.56 μM) and negative control (0.15 M NaCl). The images were captured with the aid of an optical microscope coupled with phase contrast (AE200, Motic, Barcelona, CT, ES) under 200× magnification. Finally, 10 μL of 5 mg/mL MTT was added to each well, and the mixture was incubated at 37 °C for 3 h. Formazan was solubilized with DMSO (150 μL), and the OD570 nm was measured in a microplate reader.
In data set [3] the test system is C. tropicalis (INCQS 40042). In kind it is cell-based, Candida tropicalis. Conditions: INCQS 40042, 24 h. The method, then:
as §1

Another data set concerns C. albicans (ATCC 10231). The class given is cell-based, Candida albicans. Conditions: ATCC 10231, 24 h. The method, then:
as §1

The subject of a further data set is C. krusei (ATCC 22019). In kind it is cell-based, Candida krusei. As to conditions: ATCC 22019, 24 h. How it is done: as §1
Data set [4] concerns human erythrocyte (type O). As to conditions: 200 μM; 1% human erythrocytes, 1 h, 37 °C, OD414; relative to 0.1% Triton-X-100. How it is done:
To assess a possible indicator of cytotoxicity, 150 μL of nicotianin-I, serially diluted with 0.15 M NaCl containing 5% DMSO, was incubated at 37 °C for 1 h with the same volume of 1% human erythrocyte (type O), which was obtained from the Hematology and Hemotherapy Center of Ceará, Brazil. Samples were centrifuged for 5 min at 2500g, and the supernatant was transferred to 96-well microplates. Released hemoglobin content was measured at OD414 nm. 0.1% Triton-X-100 and 0.15 M NaCl containing 5% DMSO were used as the positive and negative controls, respectively.

The subject of data set [5] is C. parapsilosis (ATCC 6258). The class given is cell-based, Candida parapsilosis. Conditions: ATCC 6258, 24 h. The method, then: as §1
Data set [6] has as its system Zebrafish embryos (AB wild-type strain). In words: Fish Embryo Acute Toxicity (FET) test, OECD 236 adapted for 96-well plate. The class given is in vivo. The method, then: Zebrafish embryos (AB wild-type strain) with approximately 1 h postfertilization (hpf) were provided by the Production Unit for Alternative Model Organisms (UniPOM), Federal University of Paraiba (UFPB), João Pessoa, Brazil. A day before the experiment, zebrafish adults (male/female ratio of 2:1) were transferred to a 7 L spawning tank with a bottom mesh and a quick-opening valve for embryo collection. Embryos were collected on the day of the experiment and cultured in the adapted embryonic medium E3 (5.0 mM NaCl, 0.17 mM KCl, 0.33 mM CaCl, and 0.33 mM MgSO4) containing 0.005% methylene blue. Only spawnings with a fertilization rate ≥90% were used. Viable embryos (normal cleavage pattern and without morphological changes) were selected using an inverted light microscope (Televal 31, Zeiss, Germany) at 50× magnification. The experiments were approved by the Ethics Committee on the Use of Animals at UFPB, with authorization documented by protocol no. 4460140920.
The Fish Embryo Acute Toxicity (FET test) test was conducted according to OECD’s guideline number 236 adapted for 96-well plate, as described by Muniz et al. Zebrafish embryos with up to 3 hpf were exposed to five concentrations (6.25, 12.5, 25, 50, and 100 μg/mL) of nicotianin-I, with the last concentration being adopted as a limit concentration. Twenty wells were filled with 0.3 mL of E3 medium and 1 embryo. In the same conditions, E3 medium and 0.15 M NaCl containing 5% DMSO were used as controls.
Embryos showing lethality end points (embryo coagulation, lack of somite formation, nondetachment of the tail bud, and lack of heartbeat) were considered dead. This number was used to determine the survival rate % [number of alive organisms/total number of organisms × 100] per tested concentration. The exposures were under static conditions (without renovation of the exposure solution). Observations were performed using a stereomicroscope at a 50× magnification. After 96 h, the surviving larvae were euthanized with eugenol and properly discarded.

The next data set concerns zebrafish embryos. Conditions: cited from earlier work.

Results on eight molecules are retold here after paper PMC12120630, “Nicotianin-I: A Tobacco Floral Nectar Peptide with Anticandidal Activity” (ACS Omega, 2025).

Broadly, the MIC is the lowest concentration found to suppress growth. Usually IC50 stands for the midpoint of a concentration-inhibition curve. High values mean a need for much substance, low ones inhibition by little substance. As a reminder, the LC50 is the concentration lethal to half of the exposed cells or organisms.

In brackets after ≈: the same amount, converted by molar mass. Several values for one entry are separate records, joined by “and”; a condition that tells them apart may be missing. Equal values may be shown once. Residues, ends and D or L forms follow the SMILES beside them.

On to `C[C@@H]1[C@H](O)[C@@H](C)/C=C/C=C/C=C/C=C/C=C/C=C/C=C/[C@H](O[C@@H]2O[C@H](C)[C@@H](O)[C@H](N)[C@@H]2O)C[C@@H]2O[C@](O)(C[C@@H](O)C[C@@H](O)[C@H](O)CC[C@@H](O)C[C@@H](O)CC(=O)O[C@H]1C)C[C@H](O)[C@H]2C(=O)O` [Amphotericin B], for which the MIC in the data set on C. albicans and in the data set on C. parapsilosis was 0.25 µg/mL (≈ 0.271 µM) each time.
As to `CC(C)[C@H](N)C(=O)N[C@@H](CS)C(=O)N1CCC[C@H]1C(=O)N[C@@H](CS)C(=O)N[C@@H](C)C(=O)N[C@@H](CS)C(=O)N[C@@H](CS)C(=O)N[C@@H](CO)C(=O)N[C@H](C(=O)N1CCC[C@H]1C(=O)N[C@@H](CCCNC(=N)N)C(=O)N[C@@H](CCCNC(=N)N)C(=O)N[C@H](C(=O)O)C(C)C)[C@@H](C)O` [Pep1] (H-VCPCACCSTPRRV-OH; N-terminus and C-terminus assumed), in data set [1], the “in vitro antifungal activity (growth inhibition), in words” value was “negligible or no significant inhibition”. The “reduction of cellular viability (up to)” value in [2] (MTT, OD570) is recorded as 80.95%.
In data set [3], `CC(C)C[C@H](NC(=O)[C@H](CS)NC(=O)[C@H](Cc1ccc(O)cc1)NC(=O)CNC(=O)[C@H](Cc1c[nH]cn1)NC(=O)[C@H](CCCNC(=N)N)NC(=O)[C@@H](NC(=O)[C@H](CS)NC(=O)[C@H](CO)NC(=O)[C@H](Cc1ccc(O)cc1)NC(=O)[C@H](Cc1c[nH]cn1)NC(=O)[C@@H](N)CCCCN)[C@@H](C)O)C(=O)N[C@@H](C)C(=O)N[C@@H](CS)C(=O)N[C@@H](Cc1ccc(O)cc1)C(=O)N[C@@H](CCCCN)C(=O)N[C@@H](CCCNC(=N)N)C(=O)N[C@@H](Cc1c[nH]c2ccccc12)C(=O)N[C@@H](Cc1ccccc1)C(=O)O` [nicotianin-I] (H-KHYSCTRHGYCLACYKRWF-OH) gave an IC50 of 24 ± 1.9 µM and an MIC of 86 ± 3.6 µM (≈ 208 µg/mL). In the data set with C. albicans (ATCC 10231), the IC50 is 80 ± 4.6 µM and the MIC was 120 ± 9.3 µM (≈ 291 µg/mL). In the data set on C. krusei (ATCC 22019), the IC50 amounted to 57 ± 3.7 µM and the MIC was 133 ± 8.6 µM (≈ 322 µg/mL). In data set [4], the “maximum percentage of hemolysis” value is 28.1%. Besides, the “cytotoxicity to fibroblasts, in words” value in data set [2] (MTT and phase contrast microscopy) is listed as “no cytotoxicity”. In data set [5], this molecule showed an IC50 of 46 ± 2.2 µM and a minimal inhibitory concentration (MIC) of 141 ± 7.1 µM (≈ 342 µg/mL). Also, in data set [6] (50 μg/mL (21 μM), 96 h exposure, static, 20 embryos per concentration), the survival rate was found to be 90%. In data set [6] (100 μg/mL or 42 μM (highest concentration), as stated in the abstract), this molecule yielded a mortality rate of 40%. In data set [6] (6.25–100 μg/mL, 96 h), the blood clotting result is on record as “n.e. (n.e.: no effect or less than 20% of embryos affected)”, the body pigmentation result was “n.e. (n.e.: no effect or less than 20% of embryos affected)”, the eye malformation entry was “n.e. ^b (n.e.: no effect or less than 20% of embryos affected)” and the “granules around the embryo (LOAEL)” value amounted to 100 µg/mL. Also, in data set [6] (6.25–100 μg/mL, 96 h), the “hatching delay (LOAEL)” value amounted to 100 µg/mL, the mouth malformation entry is reported as “n.e. (n.e.: no effect or less than 20% of embryos affected)”, the otolith malformation entry is “n.e. (n.e.: no effect or less than 20% of embryos affected)” and the pericardial edema entry is listed as “n.e”. In data set [6] (6.25–100 μg/mL, 96 h), the spine malformation result is “n.e. (n.e.: no effect or less than 20% of embryos affected)”, the undersize result was “n.e. (n.e.: no effect or less than 20% of embryos affected)” and the yolk sac edema result was “n.e. (n.e.: no effect or less than 20% of embryos affected)”. Besides, the “lowest observed adverse effect level (LOAEL)” value in data set [6] (nonlethal effects: hatching delay, granules around the embryo) amounted to 100 µg/mL. Moreover, the “LC50 (mortality)” value in [6] (zebrafish embryos, 96 h exposure) is 131 µg/mL and 131.85 µg/mL. The molecule also had an LC50 in [6] (zebrafish embryos, 96 h exposure, same value given in μM) of 54 µM.
In the case of `C[C@@H]1[C@H](O)[C@@H](C)/C=C/C=C/CC/C=C/C=C/C=C/C=C/C(O[C@H]2O[C@H](C)[C@@H](O)[C@H](N)[C@@H]2O)CC2O[C@](O)(CC(O)C(O)CCC(O)CC(O)CC(O)CC(=O)O[C@H]1C)CC(O)C2C(=O)O` (some centres unmarked) [nystatin], the MIC in the data set on C. albicans and in the data set on C. parapsilosis was 1 µg/mL (≈ 1.08 µM) each time. Moreover, the LC50 with zebrafish embryos (zebrafish embryos at 120 h postfertilization) is 6.2 µg/mL (≈ 6.69 µM). In the data set with zebrafish embryos (zebrafish embryos, Nys 3 × MIC, AmB 3.2 × MIC), the “exposure concentration causing cardiac abnormalities (pericardial edema, reduced heartbeat)” value was 3 µg/mL.
On to “EYCSAKSAKPGVHCRSCALVNMYK [Pep2, ornamental tobacco floral nectar peptide […]]”, for which the “in vitro antifungal activity (growth inhibition), in words” value in [1] is “negligible or no significant inhibition”.
With “HRFSYMCFVAQVLNKDYCSCCKF [Pep5, ornamental tobacco floral nectar peptide […]]”, the “in vitro antifungal activity (growth inhibition), in words” value in data set [1] was “negligible or no significant inhibition”.
On the same count and under the same terms, under “LHSGEGSTCYFFKTNPCCCGTWNCT [Pep3, ornamental tobacco floral nectar peptide […]]” stands “negligible or no significant inhibition”; under “WKCGSTPAPRKYCTCVAKMW [Pep4, ornamental tobacco floral nectar peptide […]]”, “negligible or no significant inhibition”.
